The record followed here is ChEMBL document CHEMBL5104180, “Design, Synthesis, and Evaluation of New Sugar-Substituted Imidazole Derivatives as Selective c-MYC Transcription Repressors Targeting the Promoter G-Quadruplex” (J Med Chem, 2022).

Test [1] in a line: Binding affinity to Hairpin DNA (unknown origin) assessed as binding constant by SPR analysis. For orientation: SPR reads the build-up and loss of mass on a sensor chip optically.
Test [2] concerns the target Quadruplex DNA. Put plainly: Binding affinity to c-MYC G4- quadruplex DNA Pu22 (unknown origin) assessed as binding constant by SPR analysis. In kind it is nucleic-acid assay.
Test [3] deals with Quadruplex DNA. The test is described as follows: Stabilization of c-MYC G4 quadruplex DNA Pu22 (unknown origin) assessed as change in melting temperature at 2 uM by CD spectroscopy. In kind it is nucleic-acid assay.
Test [4] in a line: Binding affinity to G-rich KRAS DNA (unknown origin) assessed as binding constant by SPR analysis.
Test [5] is described as follows: Binding affinity to G-rich HRAS DNA (unknown origin) assessed as binding constant by SPR analysis.
Test [6] can be described thus: Binding affinity to G-rich NRAS RNA (unknown origin) assessed as binding constant by SPR analysis.
Test [7] has as its target Quadruplex DNA. Put plainly: Binding affinity to c-MYC G4 quadruplex DNA Pu22 (unknown origin) assessed as binding constant by SPR analysis. In kind it is nucleic-acid assay.
Test [8] in a line: Binding affinity to human G-rich Htg22 DNA assessed as binding constant by SPR analysis.
For the next test, the target named is RNA. Put plainly: Binding affinity to NRAS RNA mutant (unknown origin) assessed as binding constant by SPR analysis.
The subject of another test is HepG2. Put plainly: Cytotoxicity against human HepG2 cells assessed as reduction in cell viability measured after 48 hrs by MTT assay. In kind it is functional, cell-based. The note with it: HepG2, 48 h.
A further test deals with MDA-MB-231. Put plainly: Cytotoxicity against human MDA-MB-231 cells assessed as reduction in cell viability measured after 48 hrs by MTT assay. Format: functional, cell-based. As to conditions: MDA-MB-231, 48 h.

Broadly, the Kd is the concentration at which binding is half-saturated. The ΔTm is the change in melting temperature against a reference sample. A word on the IC50: it is the concentration that gives 50% inhibition.

As to `CCn1c2ccccc2c2cc(-c3nc(-c4ccc(N5CCN(C)CC5)cc4)c(-c4ccc(N5CCN(Cc6cn(CCOCCO[C@@H]7O[C@H](CO)[C@@H](O)[C@H](O)[C@H]7O)nn6)CC5)cc4)[nH]3)ccc21` (single isomer, unassigned), the Kd was greater than 20 µM in test [1]; 1.7 µM at Quadruplex DNA [2]; 4.8 µM in test [4]; 2.5 µM in [5]; 11.7 µM in [6]; greater than 20 µM at Quadruplex DNA [7]. Also, the Kd (in [8]; on RNA) was greater than 20 µM throughout. In addition, the ΔTm in the test on Quadruplex DNA [3] is 19.2 °C.
Consider `CCn1c2ccccc2c2cc(-c3nc(-c4ccc(N5CCN(C)CC5)cc4)c(-c4ccc(N5CCN(C)CC5)cc4)n3-c3ccc(OCCOCCO[C@@H]4O[C@H](CO)[C@@H](O)[C@H](O)[C@H]4O)cc3)ccc21` (single isomer, unassigned), for which the Kd in [1] was greater than 20 µM; at Quadruplex DNA [2], 1.6 µM; in [4], greater than 20 µM; in test [5], greater than 20 µM; in test [6] it was greater than 20 µM; at Quadruplex DNA [7], greater than 20 µM. In addition, the dissociation constant Kd (in [8]; at RNA) was greater than 20 µM each time. Besides, the ΔTm in the test on Quadruplex DNA [3] is 18 °C. Moreover, the IC50 in the test with HepG2 and in the test with MDA-MB-231 was greater than 32 µM in each case.
Turning to `CCn1c2ccccc2c2cc(-c3nc(-c4ccc(N5CCN(C)CC5)cc4)c(-c4ccc(N5CCN(C)CC5)cc4)n3-c3ccc(OCCCO[C@@H]4O[C@H](CO)[C@@H](O)[C@H](O)[C@H]4O)cc3)ccc21` (single isomer, unassigned), the Kd is greater than 20 µM in [1]; 1.8 µM on Quadruplex DNA [2]; 15 µM in [4]; 14.3 µM in test [5]; greater than 20 µM in test [6]; greater than 20 µM on Quadruplex DNA [7]. Also, the equilibrium dissociation constant (Kd) (in test [8]; on RNA) was greater than 20 µM each time. For the same molecule, in the test with Quadruplex DNA [3], the shift in melting temperature (ΔTm) worked out at 16.7 °C. For the same molecule, the half-inhibitory concentration (IC50) in the test on HepG2 and with MDA-MB-231 was greater than 32 µM in each case.
As to `CCn1c2ccccc2c2cc(-c3nc(-c4ccc(N5CCN(C)CC5)cc4)c(-c4ccc(N5CCN(C)CC5)cc4)n3-c3ccc(OCCOCCO[C@@H]4O[C@H](CO)[C@@H](O)[C@H](O)[C@H]4NC(=O)C(F)(F)F)cc3)ccc21` (single isomer, unassigned), the equilibrium dissociation constant (Kd) in [1] is greater than 20 µM; on Quadruplex DNA [2], 4.1 µM; in test [4], 17.9 µM; in test [5] it was 19.9 µM; in test [6] it was 16.1 µM; at Quadruplex DNA [7], greater than 20 µM. The Kd (in test [8]; at RNA) was greater than 20 µM in each case. In the test on Quadruplex DNA [3], the thermal shift (ΔTm) worked out at 16.3 °C. Besides, the half-maximal inhibitory concentration (IC50) in the test on HepG2 and with MDA-MB-231 was greater than 32 µM each time.
With `CCn1c2ccccc2c2cc(-c3nc(-c4ccc(N5CCN(C)CC5)cc4)c(-c4ccc(N5CCN(Cc6cn(CCOCCO[C@@H]7O[C@H](COC(C)=O)[C@@H](OC(C)=O)[C@H](OC(C)=O)[C@H]7OC(C)=O)nn6)CC5)cc4)[nH]3)ccc21` (single isomer, unassigned), the Kd in [1] was greater than 20 µM; on Quadruplex DNA [2], 1 µM; in test [4], 17.2 µM; in test [5] it was 8.2 µM; in test [6], greater than 20 µM; on Quadruplex DNA [7], greater than 20 µM. The Kd (in test [8]; at RNA) was greater than 20 µM each time. For the same molecule, in the test with Quadruplex DNA [3], the ΔTm came out at 17.8 °C. Moreover, the half-inhibitory concentration (IC50) in the test on HepG2 and in the test with MDA-MB-231 was greater than 32 µM in each case.
Consider `CCn1c2ccccc2c2cc(-c3nc(-c4ccc(N5CCN(C)CC5)cc4)c(-c4ccc(N5CCN(Cc6cn([C@@H]7O[C@H](CO)[C@H](O)[C@H](O)[C@H]7O)nn6)CC5)cc4)[nH]3)ccc21` (single isomer, unassigned), for which the dissociation constant (Kd) in [1] is greater than 20 µM; at Quadruplex DNA [2], 1.6 µM; in test [4] it was 5.8 µM; in test [5] it was 2.7 µM; in test [6], 9.9 µM; on Quadruplex DNA [7] it was greater than 20 µM. For the same molecule, the Kd (in test [8]; at RNA) was greater than 20 µM in each case. Further, the thermal shift (ΔTm) in the test on Quadruplex DNA [3] is 18.4 °C.
`CCn1c2ccccc2c2cc(-c3nc(-c4ccc(N5CCN(C)CC5)cc4)c(-c4ccc(N5CCN(C)CC5)cc4)n3-c3ccc(OCCCO[C@@H]4O[C@H](CO)[C@H](O)[C@H](O)[C@H]4O)cc3)ccc21` (single isomer, unassigned): the Kd in [1] is greater than 20 µM; at Quadruplex DNA [2] it was 1.4 µM; in test [4], greater than 20 µM; in [5], 16.6 µM; in test [6], greater than 20 µM; on Quadruplex DNA [7] it was greater than 20 µM. The dissociation constant (Kd) (in [8]; at RNA) was greater than 20 µM throughout. Further, the shift in melting temperature (ΔTm) in the test on Quadruplex DNA [3] stood at 16.9 °C. The IC50 in the test on HepG2 and in the test on MDA-MB-231 was greater than 32 µM throughout.
On to `COc1ccc(-n2c(-c3ccc4c(c3)c3ccccc3n4Cc3cn(CCOCCO[C@@H]4O[C@H](CO)[C@@H](O)[C@H](O)[C@H]4O)nn3)nc(-c3ccc(N4CCN(C)CC4)cc3)c2-c2ccc(N3CCN(C)CC3)cc2)cc1` (single isomer, unassigned), for which the dissociation constant Kd in test [1] was greater than 20 µM; at Quadruplex DNA [2], 2.2 µM; in test [4], 17.8 µM; in test [5], 15.5 µM; in [6], 19.2 µM; at Quadruplex DNA [7], greater than 20 µM. Moreover, the Kd (in test [8]; at RNA) was greater than 20 µM in each case. Besides, the shift in melting temperature (ΔTm) in the test on Quadruplex DNA [3] turned out to be 17.7 °C. Moreover, the half-inhibitory concentration (IC50) in the test with HepG2 and in the test on MDA-MB-231 was greater than 32 µM throughout.
Turning to `CCn1c2ccccc2c2cc(-c3nc(-c4ccc(N5CCN(C)CC5)cc4)c(-c4ccc(N5CCN(C)CC5)cc4)n3CCOCCO[C@@H]3O[C@H](CO)[C@@H](O)[C@H](O)[C@H]3O)ccc21` (single isomer, unassigned), the Kd in test [1] is greater than 20 µM; on Quadruplex DNA [2], 3.5 µM; in [4] it was 12.9 µM; in test [5] it was 13.7 µM; in test [6] it was greater than 20 µM; at Quadruplex DNA [7], greater than 20 µM. The Kd (in test [8]; at RNA) was greater than 20 µM each time. For the same molecule, in the test on Quadruplex DNA [3], the ΔTm amounted to 16.3 °C.
Regarding `CCn1c2ccccc2c2cc(-c3nc(-c4ccc(N5CCN(C)CC5)cc4)c(-c4ccc(N5CCN(C)CC5)cc4)n3-c3ccc(OCCOCCO[C@@H]4O[C@H](CO)[C@H](O)[C@H](O)[C@H]4O)cc3)ccc21` (single isomer, unassigned), the Kd in test [1] is greater than 20 µM; on Quadruplex DNA [2], 2 µM; in test [4] it was 18.2 µM; in test [5] it was 14.4 µM; in test [6], 16.4 µM; on Quadruplex DNA [7] it was greater than 20 µM. Moreover, the Kd (in test [8]; on RNA) was greater than 20 µM in each case. Further, in the test on Quadruplex DNA [3], the ΔTm was 16.2 °C. Moreover, the half-inhibitory concentration (IC50) in the test on HepG2 and with MDA-MB-231 was greater than 32 µM in each case.
`CCn1c2ccccc2c2cc(-c3nc(-c4ccc(N5CCN(C)CC5)cc4)c(-c4ccc(N5CCN(Cc6cn([C@@H]7O[C@H](CO)[C@@H](O)[C@H](O)[C@H]7O)nn6)CC5)cc4)[nH]3)ccc21` (single isomer, unassigned): the dissociation constant (Kd) in test [1] is greater than 20 µM; at Quadruplex DNA [2], 1.9 µM; in [4], 7 µM; in test [5], 3.3 µM; in [6], 11.8 µM; on Quadruplex DNA [7] it was greater than 20 µM. The Kd (in test [8]; on RNA) was greater than 20 µM each time. Besides, in the test with Quadruplex DNA [3], the ΔTm amounted to 15.8 °C.
